Measurements from paper PMC8301114, “LC-ESI-LTQ-Orbitrap-MS for Profiling the Distribution of Oleacein and Its Metabolites in Rat Tissues” (Antioxidants, 2021).
Values joined by “and” are separate entries in the source; they are usually repeats but may differ in a detail not shown here. Equal entries are not always repeated. Marks after values point to notes of the source that are not given here.

Experiments:
[1] = Tissue distribution of OLEA and its metabolites after intragastric administration of ROO containing OLEA (LC-ESI-LTQ-Orbitrap-MS); type: in vivo, male Sprague–Dawley rats; details: for Tissue concentration in heart / Concentration in liver / Concentration in small intestine / Concentration in stomach: mean ± SD; for Detection in heart, spleen, thyroids, lungs, brain, kidney, and skin: 1, 2 and 4.5 h after intragastric OLEA in ROO
Procedure: (§1) In this study, male Sprague–Dawley rats (body weight 227 ± 11 g) were obtained from Envigo RMS Spain SL (Sant Feliu de Codines, Barcelona, Spain). The animals were acclimated for at least 1 week before the initiation of dosing with free access to food and water. They were kept at 22 ± 2 °C in an air-conditioned room on a 12-h light–12-h dark cycle. Before the experiments, the animals were fasted overnight with water available ad libitum. The experiments were performed in compliance with the Animal Experimentation Ethics Committee of the University of Barcelona, Spain and were approved by the Generalitat de Catalunya (trial no. CEEA 124/16 and no. 6435, respectively).
(§2) Before the experiment, the ROO (used as a vehicle to dissolve OLEA for intragastric administration) was analyzed by LC-ESI-LTQ-Orbitrap-MS to make sure it was free of phenolic compounds. The liquid–liquid extraction of phenolic compounds in the ROO was performed following previously described procedures. The chromatographic and mass spectrometer conditions were the same as used for the identification of metabolites (Section 2.6). Once the absence of phenolic compounds was confirmed, the OLEA was added to obtain a final concentration of 0.3 mg/mL. This concentration was chosen based on its concentration in commercial EVOO (around 300 mg/kg), and the daily ingestion recommended by the European Food Safety Authority of at least 5 mg of hydroxytyrosol and its derivatives per 20 g of olive oil.
(§3) The rats were divided into three different groups according to the time of euthanasia: 1 h (n = 4), 2 h (n = 5), and 4.5 h (n = 4). At 0 h, ROO loaded with OLEA standard was supplied to the rats (2.5 mL/300 g body weight) by intragastric administration. Additionally, a control group of rats was maintained under fasting conditions without olive oil ingestion and then similarly euthanized. The gavage volume was established following a good practice guide for substance administration and was lower than the maximum volume of lipid vehicles per kg of rat body weight that prevents elevated plasma corticosterone levels.
(§4) The rats were anesthetized with isoflurane (IsoFlo, veterinaria Esteve, Barcelona, Spain) and euthanized by exsanguinations at the aforementioned time points after the ROO ingestion. Blood samples were collected in EDTA tubes, centrifuged to obtain the plasma (3000× g, 10 min at 4 °C), and stored at −80 °C until analysis. The gastrointestinal tract (including stomach and small intestine), heart, spleen, thyroids, lungs, brain, kidney, and skin were removed from rats at the designated time points. All tissues were washed with saline solution (NaCl 0.9%) and dried with filter paper. In the case of the intestine, the portion removed was 15 cm from 2 cm posterior to the pyloric sphincter, and the intestine was also washed internally by perfusing the isotonic saline solution several times. Rat tissues were accurately weighed and stored at −80 °C until analysis.
(§5) For extraction, all samples were slowly thawed in ice. To avoid compound oxidation, the samples were handled in a room with filtered light and kept on ice throughout. The clean-up of the biological matrix (protein precipitation) was performed using a previously developed method.
A small tissue disruptor (T 10 basic ULTRA-TURRAX®, IKA laboratory technology, Staufen, Germany) was used to homogenize the thawed tissues in a 1:1 ratio (w/v) with water:ACN (1:1 (v/v) with 0.1% ascorbic acid). The samples were then sonicated for 5 min in an ice bath, shaken for 1 min (Vortex-Genie 2) and centrifuged for 10 min (11,000× g, 4 °C). To precipitate the proteins, a volume of 100 µL of the upper layer was blended with cold ACN acidified with formic acid (2%) in a 1:3 (v/v) ratio. After that, the samples were homogenized for 1 min and kept at −20 °C in a freezer for 20 min. Finally, the samples were centrifuged for 10 min (11,000× g, 4 °C) and 100 µL of supernatant was transferred to vials for analysis. […]

[2] = Plasma concentration of OLEA and its metabolites after intragastric administration of ROO containing OLEA (LC-ESI-LTQ-Orbitrap-MS); type: in vivo, male Sprague–Dawley rats
Procedure: as §1, §2, §3, §4, §5
Plasma samples were centrifuged for 10 min (11,000× g, 4 °C). Briefly, 100 µL of each sample was deproteinized with ice-cold ACN acidified with formic acid (2%) in a 1:5 (v/v) ratio. The samples were then homogenized for 1 min and kept at −20 °C in a freezer for 20 min. After that, samples were centrifuged (11,000× g, 4 °C, 10 min) and finally, 100 µL of each organic phase was transferred to vials for analysis.
The metabolic profile was determined by analyzing the samples with LC-ESI-LTQ-Orbitrap-MS. […]

[3] = design: method as in PMID 21411025; details: pH 2.0, after 4 h, partial hydrolysis releasing OH-TY; cited from earlier work
[4] = design: method as in PMID 21411025; details: in vivo study with rats; cited from earlier work
[5] = design: method as in PMID 30469520, PMID 10745093; details: moderate lipophilicity; cited from earlier work
[6] = design: method as in doi:10.1016/j.jff.2016.01.030; details: stomach at 1 h, another study; cited from earlier work
[7] = 1 h after intragastric OLEA 0.3 mg/mL in ROO
[8] = small intestine, 1 h after intragastric OLEA 0.3 mg/mL in ROO
[9] = small intestine, 2 h after intragastric OLEA 0.3 mg/mL in ROO
[10] = small intestine, 4.5 h after intragastric OLEA 0.3 mg/mL in ROO
[11] = stomach, 1 h after intragastric OLEA 0.3 mg/mL in ROO
[12] = stomach, 2 h after intragastric OLEA 0.3 mg/mL in ROO
[13] = stomach, 4.5 h after intragastric OLEA 0.3 mg/mL in ROO
[14] = 1 h after intragastric OLEA 0.3 mg/mL in ROO, mean ± SD
[15] = 2 h after intragastric OLEA 0.3 mg/mL in ROO, mean ± SD
[16] = 4.5 h after intragastric OLEA 0.3 mg/mL in ROO, mean ± SD
[17] = 2 h after intragastric OLEA 0.3 mg/mL in ROO
[18] = 4.5 h after intragastric OLEA 0.3 mg/mL in ROO

Molecule	Concentration in liver [1, 7]	Concentration in small intestine [1, 8]	Concentration in small intestine [1, 9]	Concentration in small intestine [1, 10]	Concentration in stomach [1, 11]	Concentration in stomach [1, 12]	Concentration in stomach [1, 13]	Concentration in plasma [2, 14]	Concentration in plasma [2, 15]	Concentration in plasma [2, 16]	Detection in heart, spleen, thyroids, lungs, brain, kidney, and skin [1]	Concentration in liver [1, 17]	Concentration in liver [1, 18]	logP [5]	other results
CC=C(C=O)C(CC=O)CC(=O)OCCc1ccc(O)c(O)c1 (stereo in doubt) [OLEA, Oleacein]	0.28 ± 0.02 nmol OLEA equivalents/g tissue	2.24 ± 0.14 ^a nmol OLEA equivalents/g tissue	1.69 ± 0.25 ^b nmol OLEA equivalents/g tissue	0.51 ± 0.10 ^c nmol OLEA equivalents/g tissue	8.73 ± 0.29 ^a nmol OLEA equivalents/g tissue	7.39 ± 0.25 ^b nmol OLEA equivalents/g tissue	5.77 ± 0.54 ^c nmol OLEA equivalents/g tissue	1.37 ± 0.20 nmol OLEA equivalents/mL and 1.37 ± 0.20 ^a nmol OLEA equivalents/mL	0.65 ± 0.07 ^b nmol OLEA equivalents/mL	0.67 ± 0.10 nmol OLEA equivalents/mL and 0.67 ± 0.10 ^b nmol OLEA equivalents/mL	–	–	–	–	Tissue concentration in heart ([1]; heart, 1 h after acute intake of OLEA (0.3 mg/mL) in ROO): 0.44 ± 0.07 nmol OLEA equivalents/g tissue and 0.44 ± 0.07 ^a nmol OLEA equivalents/g tissue; Tissue concentration in heart ([1]; heart, 2 h after acute intake of OLEA (0.3 mg/mL) in ROO): 0.45 ± 0.04 nmol OLEA equivalents/g tissue and 0.45 ± 0.04 ^a nmol OLEA equivalents/g tissue; Tissue concentration in heart ([1]; heart, 4.5 h after acute intake of OLEA (0.3 mg/mL) in ROO): 0.44 ± 0.06 nmol OLEA equivalents/g tissue and 0.44 ± 0.06 ^a nmol OLEA equivalents/g tissue; Concentrations detected in the heart ([1]; heart, all time points): ≤ 0.5 nmol OLEA equivalents/g tissue; Decrease of concentration in the small intestine relative to Cmax at 1 h ([1]; small intestine, at 2 h): 25%; Decrease of concentration in the small intestine relative to Cmax at 1 h ([1]; small intestine, at 4.5 h): 77%; Time of Cmax in small intestine ([1]; small intestine, sampling at 1, 2, 4.5 h): 1 h; Decrease of concentration in the stomach relative to Cmax at 1 h ([1]; stomach, at 2 h): 16%; Decrease of concentration in the stomach relative to Cmax at 1 h ([1]; stomach, at 4.5 h): 34%; Time of Cmax in stomach ([1]; stomach, sampling at 1, 2, 4.5 h): 1 h; Time of Cmax in plasma ([2]; sampling at 1, 2, 4.5 h): 1 h; OLEA remaining after incubation at pH 2.0 [3]: about 67%; Degradation in the gastric region [4]: complete degradation
OCCc1ccc(O)c(O)c1 [OH-TY, hydroxytyrosol]	3.34 ± 0.08 ^b nmol OLEA equivalents/g tissue	4.71 ± 0.32 ^a nmol OLEA equivalents/g tissue	3.79 ± 0.29 ^b nmol OLEA equivalents/g tissue	2.70 ± 0.21 ^c nmol OLEA equivalents/g tissue	13.37 ± 1.27 ^a nmol OLEA equivalents/g tissue	7.81 ± 0.69 ^b nmol OLEA equivalents/g tissue	5.23 ± 0.37 ^c nmol OLEA equivalents/g tissue	–	–	–	not detected	3.83 ± 0.21 ^a nmol OLEA equivalents/g tissue	2.51 ± 0.07 ^c nmol OLEA equivalents/g tissue	~ 0.9	Share of the total metabolites identified in plasma ([2]; 1 h): 20%; Share of the total metabolites identified in plasma ([2]; 2 h): 22%; Share of the total metabolites identified in plasma ([2]; 4.5 h): 17%; concentration at 1 h ([2]; male, Sprague-Dawley, rat, oral, 2.5 mg/kg, 1 h after intragastric OLEA 0.3 mg/mL in ROO, mean ± SD): 2110 ± 100 nM; concentration at 2 h ([2]; male, Sprague-Dawley, rat, oral, 2.5 mg/kg, 2 h after intragastric OLEA 0.3 mg/mL in ROO, mean ± SD): 3020 ± 160 nM; concentration at 4.5 h ([2]; male, Sprague-Dawley, rat, oral, 2.5 mg/kg, 4.5 h after intragastric OLEA 0.3 mg/mL in ROO, mean ± SD): 1620 ± 140 nM; OH-TY concentration in stomach [6]: 8.75 ± 1.95 nmols/g digesta
elenolic acid [EA]	1.07 ± 0.06 ^b nmol OLEA equivalents/g tissue	1.81 ± 0.05 ^a nmol OLEA equivalents/g tissue	0.67 ± 0.08 ^b nmol OLEA equivalents/g tissue	0.16 ± 0.02 ^c nmol OLEA equivalents/g tissue	7.53 ± 0.56 ^a nmol OLEA equivalents/g tissue	4.07 ± 0.36 ^b nmol OLEA equivalents/g tissue	1.81 ± 0.13 ^c nmol OLEA equivalents/g tissue	0.43 ± 0.03 ^b nmol OLEA equivalents/mL	0.76 ± 0.04 ^a nmol OLEA equivalents/mL	0.16 ± 0.02 ^c nmol OLEA equivalents/mL	not detected	1.34 ± 0.08 ^a nmol OLEA equivalents/g tissue	0.76 ± 0.02 ^c nmol OLEA equivalents/g tissue	~ 0.9	–
